# Assay results as given in patent publication US8304422B2, “Compositions and methods for inhibition of the JAK pathway” (Rigel Pharmaceuticals, Inc., priority 2007, dated 2012).
# Tests used:
# [1] = system: Ramos B-Cell Line Stimulated with IL-4; test: Assay for Ramos B-Cell Line Stimulated with IL-4 (CD23 upregulation, FACS; Example 2); assay type: cell-based; conditions: human Ramos B cells, IL-4 50 units/mL for 20-24 hours, anti-CD23-PE
# Description: One means of assaying for such inhibition is detection of the effect of the 2,4-pyrimidinediamine compounds on the upregulation of downstream gene products. In the Ramos/IL4 assay, B-cells are stimulated with the cytokine Interleukin-4 (IL-4) leading to the activation of the JAK/Stat pathway through phosphorylation of the JAK family kinases, JAK1 and JAK3, which in turn phosphorylate and activate the transcription factor Stat-6. […] To study the effect of inhibitors (e.g., the 2,4-substituted pyrimindinediamine compounds described herein) on the JAK1 and JAK3 kinases, human Ramos B cells are stimulated with human IL-4. 20 to 24 hours post stimulation, cells are stained for upregulation of CD23 and analyzed using flow cytometry (FACS). […] An exemplary assay of this type is described in greater detail in Example 2.
# B-cells stimulated with cytokine Interleukin-4 (IL-4) activate the JAK/Stat pathway through phosphorylation of the JAK family kinases, JAK-1 and JAK-3, which in turn phosphorylate and activate the transcription factor Stat-6. […] To study the effect of inhibitors on the JAK family kinases, human Ramos B cells are stimulated with human IL-4.
# The Ramos B-cell line was acquired from ATCC (ATCC Catalog No. CRL-1596). The cells were cultured in RPMI 1640 (Cellgro, MediaTech, Inc., Herndon, Va., Cat No. 10-040-CM) with 10% fetal bovine serum (FBS), heat inactivated (JRH Biosciences, Inc, Lenexa, Kans., Cat No. 12106-500M) according to ATCC propagation protocol. Cells were maintained at a density of 3.5×10^5. The day before the experiment, Ramos B-cells were diluted to 3.5×10^5 cells/mL to ensure that they were in a logarithmic growth phase.
# Cells were spun down and suspended in RPMI with 5% serum. 5×10^4 cells were used per point in a 96-well tissue culture plate. Cells were pre-incubated with compound or DMSO (Sigma-Aldrich, St. Louis, Mo., Cat No. D2650) vehicle control for 1 hour in a 37° C. incubator.
# Cells were then stimulated with IL-4 (Peprotech Inc., Rocky Hill, N.J., Cat No. 200-04) for a final concentration of 50 units/mL for 20-24 hours. Cells were then spun down and stained with anti-CD23-PE (BD Pharmingen, San Diego, Calif., Cat No. 555711) and analyzed by FACS. Detection was performed using a BD LSR I System Flow Cytometer, purchased from Becton Dickinson Biosciences of San Jose, Calif.
# BaF3 V617F cells; UKE-1 = test: Proliferation Assay (Cell Titer-Glo; Example 7); assay type: cell-based; conditions: proliferation 72 hours, inhibit JAK2 activity, cell line (BaF3 V617F or UKE-1) not stated
# How it was run: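 BaF3 V617F cells (RPMI, 10% FBS) and UKE-1 cells (Iscove's DMEM, 10% FBS, 10% equine serum, 1 uM hydrocortisone) were exposed to 3-fold serially diluted compound in duplicate for 72 hours at 37 °C. Viable cell number quantified by Cell Titer-Glo luminescence; IC50 reported.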
Compound,IC50 [1] [µM],IC50 (BaF3 V617F cells; UKE-1) [µM]
"O=S(=O)(NCc1ccc(Nc2nc(Nc3ccc4ccn(CCN5CCOCC5)c4c3)ncc2F)cc1)C1CC1 [III-1, N4-[4-(Cyclopropylsulfonylaminomethyl)phenyl]-5-fluoro-N2-[1-(2-(N-morpholino)ethyl)indol-6-yl]-2,4-pyrimidinediamine]",0.29,2.97
"NC(=O)c1ccc(Nc2ncc(F)c(Nc3ccc(CNS(=O)(=O)C4CC4)cc3)n2)cc1 [II-15, N2-(4-aminocarbonyl)phenyl-N4-(4-cyclopropylsulfonylaminomethyl)phenyl-5-fluoro-2,4-pyrimidinediamine]",0.0781,8.06
"Cc1cnc(Nc2ccc(C#N)cc2)nc1Nc1ccc(CNS(=O)(=O)C2CC2)cc1 [II-33, N2-(4-cyano)phenyl-N4-(4-cyclopropylsulfonylaminomethyl)phenyl-5-methyl-2,4-pyrimidinediamine]",0.0203,0.698
"COc1c(C)cc(Nc2ncc(C)c(Nc3ccc(CNS(=O)(=O)C4CC4)cc3)n2)cc1C [II-42, N4-(4-cyclopropylsulfonylaminomethyl)phenyl-N2-(3,5-dimethyl-4-methoxy)phenyl-5-methyl-2,4-pyrimidinediamine]",0.0247,0.0637
"COc1c(C)cc(Nc2ncc(F)c(Nc3ccc(CNS(=O)(=O)C4CC4)cc3)n2)cc1C [II-41, N4-(4-cyclopropylsulfonylaminomethyl)phenyl-N2-(3,5-dimethyl-4-methoxy)phenyl-5-fluoro-2,4-pyrimidinediamine]",0.0378,0.123
"Cc1cnc(Nc2cccc(C#N)c2)nc1Nc1cccc(CNS(=O)(=O)C2CC2)c1 [II-26, N2-(3-cyano)phenyl-N4-(3-cyclopropylsulfonylaminomethyl)phenyl-5-methyl-2,4-pyrimidinediamine]",0.146,2.24
"NC(=O)c1cccc(Nc2ncc(F)c(Nc3ccc(CNS(=O)(=O)C4CC4)cc3)n2)c1 [II-16, N2-(3-aminocarbonyl)phenyl-N4-(4-cyclopropylsulfonylaminomethyl)phenyl-5-fluoro-2,4-pyrimidinediamine]",0.265,3.29
"NC(=O)c1ccc(Nc2ncc(Cl)c(Nc3ccc(CNS(=O)(=O)C4CC4)cc3)n2)cc1 [II-37, N2-(4-aminocarbonyl)phenyl-5-chloro-N4-(4-cyclopropylsulfonylaminomethyl)phenyl-2,4-pyrimidinediamine]",0.0183,0.875
"Cc1cnc(Nc2ccc(C#N)cc2)nc1Nc1cccc(CNS(=O)(=O)C2CC2)c1 [II-25, N2-(4-cyano)phenyl-N4-(3-cyclopropylsulfonylaminomethyl)phenyl-5-methyl-2,4-pyrimidinediamine]",0.142,2.3
"Cc1cc(C)cc(Nc2ncc(C)c(Nc3ccc(CNS(=O)(=O)C4CC4)cc3)n2)c1 [II-7, N4-(4-cyclopropylsulfonylaminomethyl)phenyl-N2-(3,5-dimethyl)phenyl-5-methyl-2,4-pyrimidinediamine]",0.0449,0.688
"Cc1cnc(Nc2ccc(C(N)=O)cc2)nc1Nc1cccc(CN(C)S(=O)(=O)C2CC2)c1 [II-21, N2-(4-aminocarbonyl)phenyl-N4-[3-(N-cyclopropylsulfonyl-N-methyl)aminomethyl]phenyl-5-methyl-2,4-pyrimidinediamine]",0.11,0.479
"O=C(NCCN1CCOCC1)n1ccc2ccc(Nc3ncc(F)c(Nc4ccc(CNS(=O)(=O)C5CC5)cc4)n3)cc21 [III-2, N4-[4-(Cyclopropylsulfonylaminomethyl)phenyl]-5-fluoro-N2-[1-(2-(N-morpholino)ethylaminocarbonyl)indol-6-yl]-2,4-pyrimidinediamine]",0.911,6.18
"Cc1cc(C)cc(Nc2ncc(C)c(Nc3ccc(CNS(=O)(=O)C4CC4)c(Cl)c3)n2)c1 [II-38, N4-(3-chloro-4-cyclopropylsulfonylaminomethyl)phenyl-N2-(3,5-dimethyl)phenyl-5-methyl-2,4-pyrimidinediamine]",0.331,1.54
"Cc1cc(C)cc(Nc2ncc(F)c(Nc3ccc(CNS(=O)(=O)C4CC4)cc3)n2)c1 [II-4, N4-(4-cyclopropylsulfonylaminomethyl)phenyl-N2-(3,5-dimethyl)phenyl-5-fluoro-2,4-pyrimidinediamine]",0.088,3.4
"Cc1nc2cc(Nc3ncc(F)c(Nc4ccc(CNS(=O)(=O)C5CC5)cc4)n3)ccc2[nH]1 [III-5, N4-(4-cyclopropylsulfonylaminomethyl)phenyl-5-fluoro-N2-(2-methylbenzoimidazol-5-yl)-2,4-pyrimidinediamine]",0.178,6.31
"COc1ccc(Nc2ncc(C)c(Nc3cccc(CNS(=O)(=O)C4CC4)c3)n2)cc1Cl [II-14, N2-(3-chloro-4-methoxy)phenyl-N4-(3-cyclopropylsulfonylaminomethyl)phenyl-5-methyl-2,4-pyrimidinediamine]",0.152,2.19
"Cc1cnc(Nc2ccc(C(N)=O)cc2)nc1Nc1cccc(CNS(=O)(=O)C2CC2)c1 [II-23, N2-(4-aminocarbonyl)phenyl-N4-(3-cyclopropylsulfonylaminomethyl)phenyl-5-methyl-2,4-pyrimidinediamine]",0.107,6.14
"Cc1cnc(Nc2ccc(C#N)cc2)nc1Nc1ccc(CN(C)S(=O)(=O)C2CC2)cc1 [II-27, N2-(4-cyano)phenyl-N4-[4-(N-cyclopropylsulfonyl-N-methyl)aminomethyl]phenyl-5-methyl-2,4-pyrimidinediamine]",89.2,
"C#CCOc1ccc(Nc2ncc(C(F)(F)F)c(Nc3ccc(C)c(S(N)(=O)=O)c3)n2)cc1 [I-3, N4-(3-Aminosulfonyl-4-methylphenyl)-N2-[4-(prop-2-ynyloxy)phenyl]-5-trifluoromethyl-2,4-pyrimidinediamine]",0.153,
"Cc1cnc(Nc2ccc3[nH]c(-c4cccnc4)nc3c2)nc1Nc1ccc(CNS(=O)(=O)C2CC2)cc1 [IV-3, N4-(4-cyclopropylsulfonylaminomethyl)phenyl-5-methyl-N2-[2-(pyridin-3-yl)benzoimidazol-5-yl]-2,4-pyrimidinediamine]",0.178,
"C#CCNS(=O)(=O)c1cccc(Nc2nc(Nc3cc(C)c(OC)c(C)c3)ncc2F)c1 [I-4, N2-(3,5-Dimethyl-4-methoxyphenyl)-5-fluoro-N4-[3-(prop-2-ynylaminosulfonyl)phenyl]-2,4-pyrimidinediamine]",0.0955,
"Cc1cnc(Nc2ccc3[nH]cnc3c2)nc1Nc1ccc(CNS(=O)(=O)C2CC2)cc1 [IV-1, N2-(benzoimidazol-5-yl)-N4-(4-cyclopropylsulfonylaminomethyl)phenyl-5-methyl-2,4-pyrimidinediamine]",0.0747,
"Nc1cnc(Nc2ccc3cn[nH]c3c2)nc1Nc1cccc(S(N)(=O)=O)c1 [VIII-8, 5-Amino-N4-(3-aminosulfonylphenyl)-N2-(indazoline-6-yl)-2,4-pyrimidinediamine]",5.11,
"COc1cccc(N(C)c2ncc(N)c(Nc3ccc(S(N)(=O)=O)cc3)n2)c1 [I-11, 5-Amino-N4-(4-aminosulfonylphenyl)-N2-(3-methoxyphenyl)-N2-methyl-2,4-pyrimidinediamine]",15.9,
"Cc1cnc(Nc2cccc(C(N)=O)c2)nc1Nc1cccc(CNS(=O)(=O)C2CC2)c1 [II-24, N2-(3-aminocarbonyl)phenyl-N4-(3-cyclopropylsulfonylaminomethyl)phenyl-5-methyl-2,4-pyrimidinediamine]",0.28,
Cc1cc(Nc2ncc(F)c(Nc3ccc4c(c3)CCN4S(C)(=O)=O)n2)ccc1N1CCN(C)CC1 [VIII-5],0.0709,
"Cc1cnc(Nc2ccc3[nH]c(-c4cccs4)nc3c2)nc1Nc1ccc(CNS(=O)(=O)C2CC2)cc1 [IV-5, N4-(4-cyclopropylsulfonylaminomethyl)phenyl-5-methyl-N2-[2-(thien-2-yl)benzoimidazol-5-yl]-2,4-pyrimidinediamine]",0.0873,
"COc1cc(Nc2ncc(C)c(Nc3ccc4c(c3)C(NS(C)(=O)=O)CC4)n2)cc(OC)c1OC (racemic) [V-1, (+/−)-5-Methyl-N4-[1-(methylsulfonylamino)indan-6-yl]-N2-(3,4,5-trimethoxyphenyl)-2,4-pyrimidinediamine]",0.401,
